Results as given in patent publication US20250195521A1 (Revolution Medicines, Inc., priority 2020, published 2025).
pEC50, pIC50: −log10 of the molar value. Read-outs that look alike come from different tables or passages of the source.

How the values were obtained:
[1] = target: KRAS G12C (Homo sapiens (Human), UniProt P01116+P62937, G12C); experiment: Ras-Raf disruption/FRET/MOA assay (BRAF RBD, Cyclophilin A); type: biochemical; settings: read-out: KRAS G12C FRET IC50
How it was run: (§1)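 His6-K-Ras-GMPPNP (12.5 nM), GST-BRAF RBD (50 nM) and tagless Cyclophilin A (25 μM) were combined in 25 mM HEPES pH 7.3 with 100 mM NaCl, 5 mM MgCl2, 0.1% BSA and 0.002% Tween20, with compound as a 10-point 3-fold series from 30 μM final, then incubated 3 h at 25° C.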

[2] = target: KRAS G13D (Homo sapiens (Human), UniProt P01116+P62937, G13D); experiment: as above; type: biochemical; settings: read-out: KRAS G13D FRET data IC50
Chain of KRAS G13D (P01116 other isoform, or with tags, fused parts or gaps G13D): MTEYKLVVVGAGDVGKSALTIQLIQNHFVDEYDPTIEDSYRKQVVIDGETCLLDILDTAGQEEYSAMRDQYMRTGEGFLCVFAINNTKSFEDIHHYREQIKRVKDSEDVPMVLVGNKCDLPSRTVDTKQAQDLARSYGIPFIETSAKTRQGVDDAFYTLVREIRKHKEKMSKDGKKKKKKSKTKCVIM
Chain of KRAS G13D (P62937 whole entry): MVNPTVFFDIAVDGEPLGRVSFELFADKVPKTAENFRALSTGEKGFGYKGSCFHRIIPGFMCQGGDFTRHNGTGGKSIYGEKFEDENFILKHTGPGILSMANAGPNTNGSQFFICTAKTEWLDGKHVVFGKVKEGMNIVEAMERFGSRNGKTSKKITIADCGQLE
How it was run: as §1

[3] = target: KRAS G12V (Homo sapiens (Human), UniProt P01116+P62937, G12V); experiment: as above; type: biochemical; settings: read-out: KRAS G12V FRET IC50
Chain of KRAS G12V (P01116 other isoform, or with tags, fused parts or gaps G12V): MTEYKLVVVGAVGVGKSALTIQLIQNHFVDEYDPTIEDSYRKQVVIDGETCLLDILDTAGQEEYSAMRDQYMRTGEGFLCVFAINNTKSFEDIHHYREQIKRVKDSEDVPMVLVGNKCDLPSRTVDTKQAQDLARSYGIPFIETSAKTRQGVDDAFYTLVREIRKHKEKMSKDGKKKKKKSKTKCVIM
Chain of KRAS G12V (P62937 whole entry): as the sequence (P62937 whole entry) above
How it was run: as §1

[4] = target: NRAS G12C (Homo sapiens (Human), UniProt P01111+P62937, G12C); experiment: as above; type: biochemical
Chain of NRAS G12C (P01111 whole entry G12C): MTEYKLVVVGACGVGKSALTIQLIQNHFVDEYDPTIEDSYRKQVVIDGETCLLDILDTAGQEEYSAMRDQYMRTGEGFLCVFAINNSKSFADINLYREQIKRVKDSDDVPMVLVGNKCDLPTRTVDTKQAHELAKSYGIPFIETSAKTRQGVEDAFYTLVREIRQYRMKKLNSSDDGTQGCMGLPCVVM
Chain of NRAS G12C (P62937 whole entry): as the sequence (P62937 whole entry) above
How it was run: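 Measured: compound-facilitated Cyclophilin A:Ras complex blocking RAF RBD binding. Conditions: 12.5 nM Ras-GMPPNP, 50 nM BRAF RBD, 25 μM CypA, 3 h plus 1.5 h detection. Output: IC50 from TR-FRET ratio.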

[5] = target: KRAS WT (Homo sapiens (Human), UniProt P01116+P62937); experiment: as above; type: biochemical; settings: read-out: KRAS WT FRET data IC50
Chain of KRAS WT (P01116 other isoform, or with tags, fused parts or gaps): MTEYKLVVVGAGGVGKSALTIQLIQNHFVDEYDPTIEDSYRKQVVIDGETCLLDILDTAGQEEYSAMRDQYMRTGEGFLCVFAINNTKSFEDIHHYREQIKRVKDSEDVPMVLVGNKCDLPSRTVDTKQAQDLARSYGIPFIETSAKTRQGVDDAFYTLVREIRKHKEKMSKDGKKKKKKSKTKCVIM
Chain of KRAS WT (P62937 whole entry): as the sequence (P62937 whole entry) above
How it was run: as §1

[6] = target: KRAS G13C (Homo sapiens (Human), UniProt P01116+P62937, G13C); experiment: as above; type: biochemical; settings: read-out: KRAS G13C FRET IC50
Chain of KRAS G13C (P01116 other isoform, or with tags, fused parts or gaps G13C): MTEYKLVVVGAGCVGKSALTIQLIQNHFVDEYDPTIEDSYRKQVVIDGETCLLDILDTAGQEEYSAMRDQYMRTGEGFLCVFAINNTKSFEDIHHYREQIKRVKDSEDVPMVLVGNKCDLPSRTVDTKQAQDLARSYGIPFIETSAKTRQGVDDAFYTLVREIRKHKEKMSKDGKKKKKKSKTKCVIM
Chain of KRAS G13C (P62937 whole entry): as the sequence (P62937 whole entry) above
How it was run: as §1

[7] = target: KRAS G12D (Homo sapiens (Human), UniProt P01116+P62937, G12D); experiment: as above; type: biochemical; settings: read-out: KRAS G12D FRET IC50
Chain of KRAS G12D (P01116 other isoform, or with tags, fused parts or gaps G12D): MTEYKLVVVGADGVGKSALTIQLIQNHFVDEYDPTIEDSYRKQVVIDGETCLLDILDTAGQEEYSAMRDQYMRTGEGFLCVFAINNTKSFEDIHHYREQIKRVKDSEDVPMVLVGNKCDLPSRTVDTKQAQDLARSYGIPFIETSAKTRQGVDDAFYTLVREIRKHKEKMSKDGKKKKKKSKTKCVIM
Chain of KRAS G12D (P62937 whole entry): as the sequence (P62937 whole entry) above
How it was run: as §1

[8] = target: KRAS G12S (Homo sapiens (Human), UniProt P01116+P62937, G12S); experiment: as above; type: biochemical; settings: read-out: KRAS G12S FRET IC50
Chain of KRAS G12S (P01116 other isoform, or with tags, fused parts or gaps G12S): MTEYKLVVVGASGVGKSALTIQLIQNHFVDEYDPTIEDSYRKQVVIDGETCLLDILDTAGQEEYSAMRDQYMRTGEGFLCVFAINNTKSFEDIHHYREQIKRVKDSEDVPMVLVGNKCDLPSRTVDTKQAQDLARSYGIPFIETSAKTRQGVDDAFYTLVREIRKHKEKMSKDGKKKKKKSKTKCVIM
Chain of KRAS G12S (P62937 whole entry): as the sequence (P62937 whole entry) above
How it was run: as §1

[9] = system: NCI-H358 cells (K-Ras G12C); experiment: CellTiter-Glo cell viability, NCI-H358; type: cell-based, human; settings: Homo sapiens, NCI-H358, 120 h, read-out: H358 Cell Viability IC50
How it was run: (§2)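 Luminescence read on day 5 after ~30 min room-temperature equilibration; compounds added directly to plated cells. Values = (sample signal/avg DMSO)*100, four-parameter logistic fit.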

[10] = system: K-Ras G12C (NCI-H358 cells); experiment: Potency assay: pERK in NCI-H358 cells; type: cell-based, human; settings: Homo sapiens, read-out: pERK EC50 (H358 KRAS G12C)
How it was run: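 Cells plated the day before were exposed for 4 h at 37° C, 5% CO2 to a 10-point, 3-fold DMSO dilution series (10 mM top stock), in duplicate. Phospho-ERK was read by AlphaLISA SureFire Ultra or by In-Cell Western with DRAQ5 DNA stain, and IC50 came from a 4-parameter sigmoidal fit.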

[11] = system: Capan-1 cells (K-Ras G12V); experiment: CellTiter-Glo cell viability, Capan-1; type: cell-based, human; settings: Homo sapiens, CAPAN-1, 120 h, read-out: Capan-1 Cell Viability IC50
How it was run: as §2

[12] = read-out: NRAS G12C FRET data IC50

Chain of KRAS G12C (P01116-2 other isoform, or with tags, fused parts or gaps G12C): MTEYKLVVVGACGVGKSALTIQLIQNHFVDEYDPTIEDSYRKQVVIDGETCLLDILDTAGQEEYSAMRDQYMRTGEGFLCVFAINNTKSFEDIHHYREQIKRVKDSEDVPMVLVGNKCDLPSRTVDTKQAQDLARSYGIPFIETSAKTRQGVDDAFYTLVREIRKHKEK
Chain of KRAS G12C (P62937 whole entry): as the sequence (P62937 whole entry) above

pIC50 [1] | pIC50 [2] | pIC50 [3] | pIC50 [4, 12] | pIC50 [5] | pIC50 [6] | pIC50 [7] | pIC50 [8] | pIC50 ([9]; K-Ras G12C, 5-day treatment) | pEC50 ([10]; NCI-H358 cells, 4 hours) | Compound | pIC50 ([11]; K-Ras G12V, 5-day treatment) | pIC50 [9] | pEC50 ([10]; NCI-H358, 4 h) | pIC50 [11] | pIC50 ([4]; NRAS G12C FRET data IC50)
6.00 to 7.00 | 6.00 to 7.00 | 6.00 to 7.00 | 6.00 to 7.00 | 6.00 to 7.00 | 6.00 to 7.00 | 5.00 to 6.00 | 6.00 to 7.00 | 6.00 to 7.00 | > 5.30 | CCn1c(-c2cccnc2COC)c2c3cc(ccc31)-c1cc(O)cc(c1)C[C@H](NC(=O)[C@H](C(C)C)N(C)C(=O)OC1COC1)C(=O)N1CCC[C@H](N1)C(=O)OCC(C)(C)C2 [Compound A39] | 6.00 to 7.00 |  |  |  | 
6.00 to 7.00 | 6.00 to 7.00 | 6.00 to 7.00 | 6.00 to 7.00 | 6.00 to 7.00 | 6.00 to 7.00 | 5.00 to 6.00 | 6.00 to 7.00 | 5.00 to 6.00 | > 5.30 | CCn1c(-c2cnccc2COC)c2c3cc(ccc31)-c1cc(O)cc(c1)C[C@H](NC(=O)[C@H](C(C)C)N1CCCC1=O)C(=O)N1CCC[C@H](N1)C(=O)OCC(C)(C)C2 [Compound A40] | 5.00 to 6.00 |  |  |  | 
6.00 to 7.00 | 6.00 to 7.00 | 6.00 to 7.00 | 6.00 to 7.00 | 6.00 to 7.00 | 6.00 to 7.00 | 6.00 to 7.00 | 6.00 to 7.00 | 5.00 to 6.00 | > 5.30 | CCn1c(-c2cnccc2COC)c2c3cc(ccc31)-c1cc(O)cc(c1)C[C@H](NC(=O)[C@H](C(C)C)N(C)C(=O)[C@H]1CCCN1C)C(=O)N1CCC[C@H](N1)C(=O)OCC(C)(C)C2 [Compound A83] | 5.00 to 6.00 |  |  |  | 
6.00 to 7.00 | 7.00 to 8.00 | 5.00 to 6.00 | 6.00 to 7.00 | 6.00 to 7.00 | 7.00 to 8.00 | 6.00 to 7.00 | 6.00 to 7.00 | 6.00 to 7.00 | > 5.30 | CCn1c(-c2cccnc2[C@H](C)OC)c2c3cc(ccc31)-c1cc(O)cc(c1)C[C@H](NC(=O)[C@H](C(C)C)N(C)C(=O)O[C@H]1CCN(C)C1)C(=O)N1CCC[C@H](N1)C(=O)OCC(C)(C)C2 [Compound A169] | 6.00 to 7.00 |  |  |  | 
7.00 to 8.00 | 7.00 to 8.00 | 7.00 to 8.00 | 7.00 to 8.00 | 7.00 to 8.00 | 7.00 to 8.00 | 6.00 to 7.00 | 7.00 to 8.00 | 7.00 to 8.00 | > 5.30 | CCn1c(-c2cccnc2[C@H](C)OC)c2c3cc(ccc31)-c1cc(O)cc(c1)C[C@H](NC(=O)[C@H](C(C)C)N(C)C(=O)[C@H]1CCN(C(=O)OC3CC3)C1)C(=O)N1CCC[C@H](N1)C(=O)OCC(C)(C)C2 [Compound A202] | 7.00 to 8.00 |  |  |  | 
7.00 to 8.00 | 7.00 to 8.00 | 7.00 to 8.00 | 7.00 to 8.00 | 7.00 to 8.00 | 7.00 to 8.00 | 7.00 to 8.00 | 7.00 to 8.00 | 7.00 to 8.00 | > 5.30 | CCn1c(-c2cccnc2[C@H](C)OC)c2c3cc(ccc31)-c1cc(O)cc(c1)C[C@H](NC(=O)[C@H](C(C)C)N(C)C(=O)C1CCc3ncccc3C1)C(=O)N1CCC[C@H](N1)C(=O)OCC(C)(C)C2 (stereo partly drawn) [Compound A247] | 7.00 to 8.00 |  |  |  | 
6.00 to 7.00 | 5.00 to 6.00 | 6.00 to 7.00 | 6.00 to 7.00 | 6.00 to 7.00 | 6.00 to 7.00 | 5.00 to 6.00 | 5.00 to 6.00 | 6.00 to 7.00 | > 5.30 | CCn1c(-c2cccnc2[C@H](C)OC)c2c3cc(ccc31)-c1csc(n1)C[C@H](NC(=O)[C@H](C(C)C)N(C)S(=O)(=O)N1CC(OC)C1)C(=O)N1CCC[C@H](N1)C(=O)OCC(C)(C)C2 [Compound A322] | 6.00 to 7.00 |  |  |  | 
7.00 to 8.00 | 6.00 to 7.00 | 6.00 to 7.00 | 7.00 to 8.00 | 6.00 to 7.00 | 6.00 to 7.00 | 5.00 to 6.00 | 6.00 to 7.00 | 7.00 to 8.00 | > 5.30 | CCn1c(-c2cccnc2[C@H](C)OC)c2c3cc(ccc31)-c1csc(n1)C[C@H](NC(=O)[C@H](C(C)C)N(C)C(=O)N1CC(OC(F)(F)F)C1)C(=O)N1CCC[C@H](N1)C(=O)OCC(C)(C)C2 [Compound A330] | 7.00 to 8.00 |  |  |  | 
7.00 to 8.00 | 6.00 to 7.00 | 6.00 to 7.00 | 7.00 to 8.00 | 6.00 to 7.00 | 7.00 to 8.00 | 6.00 to 7.00 | 6.00 to 7.00 | 6.00 to 7.00 |  | CCn1c(-c2cccnc2[C@H](C)OC)c2c3cc(ccc31)-c1cc(O)cc(c1)C[C@H](NC(=O)[C@H](C(C)C)N(C)C(=O)C1CC(C)C1)C(=O)N1CCC[C@H](N1)C(=O)OCC(C)(C)C2 (stereo partly drawn) [Compound A384] | 6.00 to 7.00 |  |  |  | 
7.00 to 8.00 | 7.00 to 8.00 | 6.00 to 7.00 | 7.00 to 8.00 | 7.00 to 8.00 | 7.00 to 8.00 | 7.00 to 8.00 | 7.00 to 8.00 | 7.00 to 8.00 |  | CCn1c(-c2cccnc2[C@H](C)OC)c2c3cc(ccc31)-c1cc(O)cc(c1)C[C@H](NC(=O)[C@H](C(C)C)N(C)C(=O)[C@H]1CC[C@@H]1N)C(=O)N1CCC[C@H](N1)C(=O)OCC(C)(C)C2 [Compound A392] | 5.00 to 6.00 |  |  |  | 
7.00 to 8.00 | 7.00 to 8.00 | 6.00 to 7.00 | 7.00 to 8.00 | 7.00 to 8.00 | 7.00 to 8.00 | 7.00 to 8.00 | 7.00 to 8.00 | 6.00 to 7.00 |  | CCn1c(-c2cccnc2[C@H](C)OC)c2c3cc(ccc31)-c1cc(O)cc(c1)C[C@H](NC(=O)[C@H](C(C)C)N(C)C(=O)C1CCNC13CCC3)C(=O)N1CCC[C@H](N1)C(=O)OCC(C)(C)C2 (stereo partly drawn) [Compound A393] | 5.00 to 6.00 |  |  |  | 
7.00 to 8.00 | 6.00 to 7.00 | 6.00 to 7.00 | 7.00 to 8.00 | 7.00 to 8.00 | 6.00 to 7.00 | 6.00 to 7.00 | 6.00 to 7.00 | 7.00 to 8.00 |  | CCn1c(-c2cccnc2[C@H](C)OC)c2c3cc(ccc31)-c1csc(n1)C[C@H](NC(=O)[C@H](C(C)C)N(C)C(=O)N1CCOC[C@H]1C)C(=O)N1CCC[C@H](N1)C(=O)OCC(C)(C)C2 [Compound A402] | 7.00 to 8.00 |  |  |  | 
7.00 to 8.00 | 6.00 to 7.00 | 6.00 to 7.00 | 6.00 to 7.00 | 7.00 to 8.00 | 7.00 to 8.00 | 6.00 to 7.00 | 6.00 to 7.00 | 6.00 to 7.00 |  | CCn1c(-c2cccnc2[C@H](C)OC)c2c3cc(ccc31)-c1cc(O)cc(c1)C[C@H](NC(=O)[C@H](C(C)C)N(C)C(=O)C13CCC(CO1)C3)C(=O)N1CCC[C@H](N1)C(=O)OCC(C)(C)C2 [Compound A410] | 6.00 to 7.00 |  |  |  | 

Compound | pIC50 [1] | pIC50 [2] | pIC50 [3] | pIC50 [4, 12] | pIC50 [5] | pIC50 [6] | pIC50 [7] | pIC50 [8] | pIC50 ([9]; K-Ras G12C, 5-day treatment) | pEC50 ([10]; NCI-H358 cells, 4 hours) | pIC50 ([11]; K-Ras G12V, 5-day treatment) | pIC50 [9] | pEC50 ([10]; NCI-H358, 4 h) | pIC50 [11] | pIC50 ([4]; NRAS G12C FRET data IC50)
CCn1c(-c2cccnc2[C@H](C)OC)c2c3cc(ccc31)-c1csc(n1)C[C@H](NC(=O)[C@H](C(C)C)N(C)C(=O)N1CC3CC(C1)O3)C(=O)N1CCC[C@H](N1)C(=O)OCC(C)(C)C2 [Compound A301] | 6.00 to 7.00 | 5.00 to 6.00 | 6.00 to 7.00 | 6.00 to 7.00 | 6.00 to 7.00 | 5.00 to 6.00 | 5.00 to 6.00 | 6.00 to 7.00 |  |  |  | 7.00 to 8.00 | > 5.30 | 6.00 to 7.00 | 
CCn1c(-c2cccnc2[C@H](C)OC)c2c3cc(ccc31)-c1cc(O)cc(c1)C[C@H](NC(=O)[C@H](C(C)C)N(C)C(=O)C1CCC(C(F)(F)F)O1)C(=O)N1CCC[C@H](N1)C(=O)OCC(C)(C)C2 (stereo partly drawn) [Compound A408] | 7.00 to 8.00 | 6.00 to 7.00 | 6.00 to 7.00 |  | 6.00 to 7.00 | 7.00 to 8.00 | 6.00 to 7.00 | 7.00 to 8.00 |  |  |  | 6.00 to 7.00 |  | 5.00 to 6.00 | 7.00 to 8.00
